In patent publication US20230257396A1, “MACROCYCLES AND THEIR USE” (BLOSSOMHILL THERAPEUTICS, INC., priority 2020, published 2023):

Legend:
Assay in all cases: KINOMEscan kinase binding assay (Eurofins/DiscoveRx), % Ctrl
kinases [1] = target: T1, kinases (Homo sapiens, UniProt P00519)
T1 construct: purchased Eurofins/DiscoveRx; host or cells: E. coli BL21-derived host (T7 phage display) for most kinases; HEK-293 for the rest
Procedure: (§1) Kinase binding assays were performed at Eurofins/DiscoveRx using the general KINOMEscan Protocol (Fabian, M. A. et al., “A small molecule-kinase interaction map for clinical kinase inhibitors,” Nat. Biotechnol. 2005, 23(3):329-36). For most assays, kinase-tagged T7 phage strains were prepared in an E. coli host derived from the BL21 strain. E. coli were grown to log-phase and infected with T7 phage and incubated with shaking at 32° C. until lysis. The lysates were centrifuged and filtered to remove cell debris. The remaining kinases were produced in HEK-293 cells and subsequently tagged with DNA for qPCR detection. Streptavidin-coated magnetic beads were treated with biotinylated small molecule ligands for 30 minutes at room temperature to generate affinity resins for kinase assays. The liganded beads were blocked with excess biotin and washed with blocking buffer (SeaBlock (Pierce), 1% BSA, 0.05% Tween 20, 1 mM DTT) to remove unbound ligand and to reduce nonspecific binding. Binding reactions were assembled by combining kinases, liganded affinity beads, and test compounds in 1×binding buffer (20% SeaBlock, 0.17×PBS, 0.05% Tween 20, 6 mM DTT). All reactions were performed in polystyrene 96-well plates in a final volume of 0.135 mL. The assay plates were incubated at room temperature with shaking for 1 hour and the affinity beads were washed with washbuffer (1×PBS, 0.05% Tween 20). The beads were then re-suspended in elution buffer (1× PBS, 0.05% Tween 20, 0.5 μM non-biotinylated affinity ligand) and incubated at room temperature with shaking for 30 minutes. The kinase concentration in the eluates was measured by qPCR. Results for compounds tested in this assay at a given concentration are reported as “% Ctrl”, where lower numbers indicate stronger binding in the matrix.
(§2) (test compound signal-positive control signal)/(negative control signal-positive control signal) X100

kinases [2] = target: T2, kinases (Homo sapiens, UniProt P00519, F317I)
T2 construct: purchased Eurofins/DiscoveRx; host or cells: E. coli BL21-derived host (T7 phage display) for most kinases; HEK-293 for the rest
T2 sequence (P00519 whole entry F317I): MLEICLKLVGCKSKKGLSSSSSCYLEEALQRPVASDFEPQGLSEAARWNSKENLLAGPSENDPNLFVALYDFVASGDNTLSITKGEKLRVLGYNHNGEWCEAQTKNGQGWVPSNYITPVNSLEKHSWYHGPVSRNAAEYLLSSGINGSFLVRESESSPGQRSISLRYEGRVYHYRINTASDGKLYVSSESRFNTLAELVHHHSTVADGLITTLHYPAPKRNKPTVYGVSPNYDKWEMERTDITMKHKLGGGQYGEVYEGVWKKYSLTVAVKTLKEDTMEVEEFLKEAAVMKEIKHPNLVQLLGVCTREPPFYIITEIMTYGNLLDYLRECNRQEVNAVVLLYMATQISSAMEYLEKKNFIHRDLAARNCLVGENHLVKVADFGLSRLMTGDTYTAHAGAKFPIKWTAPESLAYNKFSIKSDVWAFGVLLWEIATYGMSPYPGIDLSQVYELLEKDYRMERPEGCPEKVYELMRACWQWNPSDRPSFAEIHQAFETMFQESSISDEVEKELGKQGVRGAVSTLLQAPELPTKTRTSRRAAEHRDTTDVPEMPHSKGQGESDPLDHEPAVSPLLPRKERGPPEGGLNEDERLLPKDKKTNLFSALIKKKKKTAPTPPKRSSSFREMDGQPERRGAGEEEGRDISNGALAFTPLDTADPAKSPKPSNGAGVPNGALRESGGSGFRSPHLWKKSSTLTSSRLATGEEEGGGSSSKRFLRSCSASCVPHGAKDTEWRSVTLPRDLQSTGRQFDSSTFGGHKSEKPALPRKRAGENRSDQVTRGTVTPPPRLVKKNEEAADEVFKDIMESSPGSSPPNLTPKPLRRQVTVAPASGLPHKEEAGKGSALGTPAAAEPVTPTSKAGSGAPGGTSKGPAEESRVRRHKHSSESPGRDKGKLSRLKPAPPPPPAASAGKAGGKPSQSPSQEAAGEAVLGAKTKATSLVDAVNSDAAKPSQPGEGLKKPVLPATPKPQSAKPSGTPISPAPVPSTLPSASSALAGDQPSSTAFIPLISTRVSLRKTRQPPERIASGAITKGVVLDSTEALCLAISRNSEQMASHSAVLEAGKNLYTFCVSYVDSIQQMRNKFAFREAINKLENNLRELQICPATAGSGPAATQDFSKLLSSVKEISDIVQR
Procedure: as §1, §2

kinases [3] = target: T3, kinases (Homo sapiens, UniProt P00533, DEL752-759)
T3 construct: purchased Eurofins/DiscoveRx; host or cells: E. coli BL21-derived host (T7 phage display) for most kinases; HEK-293 for the rest
Procedure: as §1, §2

kinases [4] = target: T4, kinases (Homo sapiens, UniProt P00533, G719C)
T4 construct: purchased Eurofins/DiscoveRx; host or cells: E. coli BL21-derived host (T7 phage display) for most kinases; HEK-293 for the rest
Procedure: as §1, §2

kinases [5] = target: T5, kinases (Homo sapiens, UniProt P00533, L858R)
T5 construct: purchased Eurofins/DiscoveRx; host or cells: E. coli BL21-derived host (T7 phage display) for most kinases; HEK-293 for the rest
Procedure: as §1, §2

kinases [6] = target: T6, kinases (Homo sapiens, UniProt P09619)
T6 construct: purchased Eurofins/DiscoveRx; host or cells: E. coli BL21-derived host (T7 phage display) for most kinases; HEK-293 for the rest
T6 sequence (P09619 33-1106): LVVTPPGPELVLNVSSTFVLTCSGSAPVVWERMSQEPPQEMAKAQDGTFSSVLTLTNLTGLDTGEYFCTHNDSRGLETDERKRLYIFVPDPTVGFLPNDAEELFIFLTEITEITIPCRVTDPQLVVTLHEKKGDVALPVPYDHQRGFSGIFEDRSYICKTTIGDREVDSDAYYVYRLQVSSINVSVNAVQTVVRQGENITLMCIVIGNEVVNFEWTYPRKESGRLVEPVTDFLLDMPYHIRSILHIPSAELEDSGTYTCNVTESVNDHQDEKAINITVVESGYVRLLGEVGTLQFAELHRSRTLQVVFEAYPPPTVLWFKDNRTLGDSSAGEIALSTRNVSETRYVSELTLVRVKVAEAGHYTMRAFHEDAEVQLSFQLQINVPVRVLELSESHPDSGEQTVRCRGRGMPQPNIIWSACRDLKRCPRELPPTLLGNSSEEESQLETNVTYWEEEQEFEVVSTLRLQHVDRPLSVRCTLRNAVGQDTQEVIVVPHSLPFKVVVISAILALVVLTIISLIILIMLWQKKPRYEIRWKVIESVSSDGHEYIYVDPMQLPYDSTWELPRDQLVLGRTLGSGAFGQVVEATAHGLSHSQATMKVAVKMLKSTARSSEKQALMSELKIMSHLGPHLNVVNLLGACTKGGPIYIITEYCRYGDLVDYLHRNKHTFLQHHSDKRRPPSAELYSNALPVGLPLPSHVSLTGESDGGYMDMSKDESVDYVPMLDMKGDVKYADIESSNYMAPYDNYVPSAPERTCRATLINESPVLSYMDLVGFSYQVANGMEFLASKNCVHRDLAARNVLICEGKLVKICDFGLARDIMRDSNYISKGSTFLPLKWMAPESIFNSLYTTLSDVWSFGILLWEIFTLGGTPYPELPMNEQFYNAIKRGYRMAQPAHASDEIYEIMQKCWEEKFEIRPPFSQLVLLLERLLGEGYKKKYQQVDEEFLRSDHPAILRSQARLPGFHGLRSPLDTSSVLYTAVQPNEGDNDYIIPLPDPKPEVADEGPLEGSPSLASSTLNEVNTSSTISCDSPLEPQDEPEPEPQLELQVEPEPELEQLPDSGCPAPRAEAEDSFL
Procedure: as §1, §2

kinases [7] = target: T7, kinases (Homo sapiens, UniProt P10721)
T7 construct: purchased Eurofins/DiscoveRx; host or cells: E. coli BL21-derived host (T7 phage display) for most kinases; HEK-293 for the rest
Procedure: as §1, §2

kinases [8] = target: T8, kinases (Homo sapiens, UniProt P10721, D816V)
T8 construct: purchased Eurofins/DiscoveRx; host or cells: E. coli BL21-derived host (T7 phage display) for most kinases; HEK-293 for the rest
Procedure: as §1, §2

kinases [9] = target: T9, kinases (Homo sapiens, UniProt P10721, V559D)
T9 construct: purchased Eurofins/DiscoveRx; host or cells: E. coli BL21-derived host (T7 phage display) for most kinases; HEK-293 for the rest
Procedure: as §1, §2

kinases [10] = target: T10, kinases (Homo sapiens, UniProt P16234)
T10 construct: purchased Eurofins/DiscoveRx; host or cells: E. coli BL21-derived host (T7 phage display) for most kinases; HEK-293 for the rest
T10 sequence (P16234 24-1089): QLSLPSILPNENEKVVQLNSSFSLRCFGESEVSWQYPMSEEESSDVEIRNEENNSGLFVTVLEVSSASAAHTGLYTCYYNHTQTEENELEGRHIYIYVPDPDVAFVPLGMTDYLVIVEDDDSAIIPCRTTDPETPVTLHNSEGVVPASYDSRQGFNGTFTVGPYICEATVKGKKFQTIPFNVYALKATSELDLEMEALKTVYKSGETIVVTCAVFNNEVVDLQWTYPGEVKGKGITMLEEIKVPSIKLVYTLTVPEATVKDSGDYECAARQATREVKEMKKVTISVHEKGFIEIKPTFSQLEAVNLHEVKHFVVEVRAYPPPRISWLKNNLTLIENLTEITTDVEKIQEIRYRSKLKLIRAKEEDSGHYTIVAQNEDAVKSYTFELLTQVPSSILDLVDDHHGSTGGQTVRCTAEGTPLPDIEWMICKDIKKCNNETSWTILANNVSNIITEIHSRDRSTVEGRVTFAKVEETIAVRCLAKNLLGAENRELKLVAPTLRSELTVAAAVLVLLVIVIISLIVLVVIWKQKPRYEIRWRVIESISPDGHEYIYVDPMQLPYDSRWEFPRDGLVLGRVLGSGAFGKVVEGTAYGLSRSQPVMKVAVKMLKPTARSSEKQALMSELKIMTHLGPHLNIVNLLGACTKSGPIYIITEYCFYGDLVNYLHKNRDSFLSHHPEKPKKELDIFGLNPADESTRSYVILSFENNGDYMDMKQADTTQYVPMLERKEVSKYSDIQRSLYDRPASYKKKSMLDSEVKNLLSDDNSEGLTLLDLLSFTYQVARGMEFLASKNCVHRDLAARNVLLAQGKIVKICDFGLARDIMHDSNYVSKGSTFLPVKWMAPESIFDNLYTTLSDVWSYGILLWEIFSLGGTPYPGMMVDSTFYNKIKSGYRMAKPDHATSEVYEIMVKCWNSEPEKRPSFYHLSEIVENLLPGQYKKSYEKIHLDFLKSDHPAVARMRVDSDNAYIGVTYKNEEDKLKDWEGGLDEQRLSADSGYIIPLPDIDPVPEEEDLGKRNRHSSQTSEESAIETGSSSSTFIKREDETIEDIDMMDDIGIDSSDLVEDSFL
Procedure: as §1, §2

kinases [11] = target: T11, kinases (Homo sapiens, UniProt P17948)
T11 construct: purchased Eurofins/DiscoveRx; host or cells: E. coli BL21-derived host (T7 phage display) for most kinases; HEK-293 for the rest
Procedure: as §1, §2

kinases [12] = target: T12, kinases (Homo sapiens, UniProt P35916)
T12 construct: purchased Eurofins/DiscoveRx; host or cells: E. coli BL21-derived host (T7 phage display) for most kinases; HEK-293 for the rest
T12 sequence (P35916 25-1363): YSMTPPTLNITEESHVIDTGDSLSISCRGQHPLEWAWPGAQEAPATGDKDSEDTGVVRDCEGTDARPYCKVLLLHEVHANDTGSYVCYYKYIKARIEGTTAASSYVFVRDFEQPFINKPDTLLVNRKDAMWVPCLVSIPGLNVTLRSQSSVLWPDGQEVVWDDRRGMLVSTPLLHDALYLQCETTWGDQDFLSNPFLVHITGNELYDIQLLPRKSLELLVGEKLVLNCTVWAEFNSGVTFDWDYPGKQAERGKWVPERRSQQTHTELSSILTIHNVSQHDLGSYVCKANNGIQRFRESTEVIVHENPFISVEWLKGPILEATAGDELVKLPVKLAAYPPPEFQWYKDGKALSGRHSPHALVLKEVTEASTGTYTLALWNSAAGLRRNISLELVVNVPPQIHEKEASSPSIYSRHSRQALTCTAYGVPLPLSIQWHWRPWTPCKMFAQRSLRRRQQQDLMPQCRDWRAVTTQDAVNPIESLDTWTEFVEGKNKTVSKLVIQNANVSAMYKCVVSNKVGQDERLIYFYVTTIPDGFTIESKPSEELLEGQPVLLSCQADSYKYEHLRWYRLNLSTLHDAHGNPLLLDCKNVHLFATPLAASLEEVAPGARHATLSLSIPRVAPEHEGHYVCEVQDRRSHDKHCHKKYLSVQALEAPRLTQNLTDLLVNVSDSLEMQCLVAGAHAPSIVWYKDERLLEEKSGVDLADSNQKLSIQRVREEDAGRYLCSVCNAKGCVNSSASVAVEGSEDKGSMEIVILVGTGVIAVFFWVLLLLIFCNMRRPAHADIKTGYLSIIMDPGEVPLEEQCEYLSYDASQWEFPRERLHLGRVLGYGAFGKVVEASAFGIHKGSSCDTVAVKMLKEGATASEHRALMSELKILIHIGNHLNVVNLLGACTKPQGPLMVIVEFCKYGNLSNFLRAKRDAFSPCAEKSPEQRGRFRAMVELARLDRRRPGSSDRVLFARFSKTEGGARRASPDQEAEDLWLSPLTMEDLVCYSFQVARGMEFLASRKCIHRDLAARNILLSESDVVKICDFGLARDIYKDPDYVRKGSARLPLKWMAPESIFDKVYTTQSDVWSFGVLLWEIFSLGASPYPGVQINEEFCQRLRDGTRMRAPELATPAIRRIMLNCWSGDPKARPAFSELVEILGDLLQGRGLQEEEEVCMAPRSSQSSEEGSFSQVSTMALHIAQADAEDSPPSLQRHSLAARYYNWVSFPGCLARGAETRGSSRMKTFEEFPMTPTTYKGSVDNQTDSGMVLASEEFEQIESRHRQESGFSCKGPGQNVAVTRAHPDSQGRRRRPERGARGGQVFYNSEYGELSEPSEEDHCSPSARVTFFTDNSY
Procedure: as §1, §2

kinases [13] = target: T13, kinases (Homo sapiens, UniProt P36888, D835H)
T13 construct: purchased Eurofins/DiscoveRx; host or cells: E. coli BL21-derived host (T7 phage display) for most kinases; HEK-293 for the rest
T13 sequence (P36888 27-993 D835H): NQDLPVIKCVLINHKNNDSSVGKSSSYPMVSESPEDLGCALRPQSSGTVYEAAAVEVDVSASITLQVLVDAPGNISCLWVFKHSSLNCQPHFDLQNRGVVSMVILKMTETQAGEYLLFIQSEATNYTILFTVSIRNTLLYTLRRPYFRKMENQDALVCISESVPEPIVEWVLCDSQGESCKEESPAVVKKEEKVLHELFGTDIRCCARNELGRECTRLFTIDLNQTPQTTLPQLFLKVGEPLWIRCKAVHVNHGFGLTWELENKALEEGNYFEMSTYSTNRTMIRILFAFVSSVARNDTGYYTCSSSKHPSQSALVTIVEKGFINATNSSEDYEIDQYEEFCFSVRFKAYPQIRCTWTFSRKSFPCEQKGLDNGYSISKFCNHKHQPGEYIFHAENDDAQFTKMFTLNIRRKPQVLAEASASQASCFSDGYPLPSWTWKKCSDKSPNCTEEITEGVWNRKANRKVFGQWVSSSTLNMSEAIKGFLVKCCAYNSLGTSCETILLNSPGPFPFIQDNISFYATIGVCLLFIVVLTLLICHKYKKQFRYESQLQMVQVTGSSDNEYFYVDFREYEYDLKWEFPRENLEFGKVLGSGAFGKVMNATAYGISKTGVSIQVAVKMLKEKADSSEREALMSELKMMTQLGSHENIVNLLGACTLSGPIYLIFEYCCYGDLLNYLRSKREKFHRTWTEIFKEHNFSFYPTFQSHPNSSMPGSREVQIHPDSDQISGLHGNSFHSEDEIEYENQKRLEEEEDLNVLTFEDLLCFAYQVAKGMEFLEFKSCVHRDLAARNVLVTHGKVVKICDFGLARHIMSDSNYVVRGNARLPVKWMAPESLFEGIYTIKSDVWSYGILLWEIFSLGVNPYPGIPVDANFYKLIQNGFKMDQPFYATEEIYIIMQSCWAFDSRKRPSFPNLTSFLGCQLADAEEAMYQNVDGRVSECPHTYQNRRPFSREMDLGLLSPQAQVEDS
Procedure: as §1, §2

[14] = 1 μM; ABL1(F317I)-nonphosphorylated
[15] = 1 μM; ABL1(F317I)-phosphorylated

T1 sequence (P00519 whole entry): as the sequence (P00519 whole entry F317I) above, with I317F counted along it

SMILES	% Ctrl, ABL1-nonphosphorylated (kinases [1]; 1 μM; ABL1-nonphosphorylated)	% Ctrl, ABL1-phosphorylated (kinases [1]; 1 μM; ABL1-phosphorylated)	% Ctrl, ABL1(F317I)-nonphosphorylated (kinases [2]; [14])	% Ctrl, ABL1(F317I)-phosphorylated (kinases [2]; [15])	% Ctrl, EGFR(S752-I759del) (kinases [3]; 1 μM; EGFR(S752-I759del))	% Ctrl, EGFR(G719C) (kinases [4]; 1 μM; EGFR(G719C))	% Ctrl, EGFR(L858R) (kinases [5]; 1 μM; EGFR(L858R))	% Ctrl, PDGFRB (kinases [6]; 1 μM; PDGFRB)	% Ctrl, KIT (kinases [7]; 1 μM; KIT)	% Ctrl, KIT-autoinhibited (kinases [7]; 1 μM; KIT-autoinhibited)	% Ctrl, KIT(D816V) (kinases [8]; 1 μM; KIT(D816V))	% Ctrl, KIT(V559D) (kinases [9]; 1 μM; KIT(V559D))	% Ctrl, PDGFRA (kinases [10]; 1 μM; PDGFRA)	% Ctrl, FLT1 (kinases [11]; 1 μM; FLT1)	% Ctrl, FLT4 (kinases [12]; 1 μM; FLT4)	% Ctrl, FLT3(D835H) (kinases [13]; 1 μM; FLT3(D835H))	other results
Cc1cc2c([nH]1)/C=C1\C(=O)Nc3ccc(cc31)CN(C)C(=O)COCCNC2=O [Ex.111, [17a(18)Z]-2,11-dimethyl-6,7,11,12-tetrahydro-1H-13,15-(ethanediylidene)dipyrrolo[3,2-f:3′,4′-i][1,4,14]oxadiazacyclohexadecine-4,10,17(5H,9H,16H)-trione]	71 % Ctrl	59 % Ctrl	89 % Ctrl	100 % Ctrl	54 % Ctrl	73 % Ctrl	78 % Ctrl	88 % Ctrl	99 % Ctrl	100 % Ctrl	76 % Ctrl	97 % Ctrl	95 % Ctrl	46 % Ctrl	74 % Ctrl	20 % Ctrl	–
Cc1cc2c([nH]1)/C=C1\C(=O)Nc3ccc(cc31)-c1c(C)nn(C)c1COCCN(C)C2=O [Ex. 146, [3a(4)Z]-6,9,14,16-tetramethyl-10,11,13,14-tetrahydro-2H-1,17-(ethanediylidene)pyrazolo[4,3-m]dipyrrolo[3,2-f:3′,4′-i][1,4]oxazacyclopentadecine-3,8(5H,9H)-dione]	–	–	–	–	–	–	–	–	–	–	–	–	–	–	–	–	% Ctrl, ABL1-nonphosphorylated (kinases [1]; target ABL1-nonphosphorylated; 1 μM): 64 % Ctrl; % Ctrl, ABL1-phosphorylated (kinases [1]; target ABL1-phosphorylated; 1 μM): 100 % Ctrl; % Ctrl, ABL1(F317I)-nonphosphorylated (kinases [2]; target ABL1(F317I)-nonphosphorylated; 1 μM): 100 % Ctrl; % Ctrl, ABL1(F317I)-phosphorylated (kinases [2]; target ABL1(F317I)-phosphorylated; 1 μM): 100 % Ctrl; % Ctrl, EGFR(S752-I759del) (kinases [3]; target EGFR(S752-I759del); 1 μM): 83 % Ctrl; % Ctrl, EGFR(G719C) (kinases [4]; target EGFR(G719C); 1 μM): 89 % Ctrl; % Ctrl, EGFR(L858R) (kinases [5]; target EGFR(L858R); 1 μM): 88 % Ctrl; % Ctrl, PDGFRB (kinases [6]; target PDGFRB; 1 μM): 96 % Ctrl; % Ctrl, KIT-autoinhibited (kinases [7]; target KIT-autoinhibited; 1 μM): 80 % Ctrl; % Ctrl, KIT (kinases [7]; target KIT; 1 μM): 96 % Ctrl; % Ctrl, KIT(D816V) (kinases [8]; target KIT(D816V); 1 μM): 80 % Ctrl; % Ctrl, KIT(V559D) (kinases [9]; target KIT(V559D); 1 μM): 75 % Ctrl; % Ctrl, PDGFRA (kinases [10]; target PDGFRA; 1 μM): 100 % Ctrl; % Ctrl, FLT1 (kinases [11]; target FLT1; 1 μM): 100 % Ctrl; % Ctrl, FLT4 (kinases [12]; target FLT4; 1 μM): 78 % Ctrl; % Ctrl, FLT3(D835H) (kinases [13]; target FLT3(D835H); 1 μM): 5.7 % Ctrl
Cc1cc2c([nH]1)/C=C1\C(=O)Nc3cnc(nc31)N(C)CCCOCCN(C)C2=O [Ex.71, [17a(18)Z]-2,5,12-trimethyl-6,7,9,10,11,12-hexahydro-1H-13,15-(azenometheno)dipyrrolo[3,2-f:3′,4′-i][1,4,11,13]oxatriazacyclohexadecine-4,17(5H,16H)-dione]	90 % Ctrl	93 % Ctrl	100 % Ctrl	100 % Ctrl	74 % Ctrl	71 % Ctrl	9 % Ctrl	98 % Ctrl	100 % Ctrl	100 % Ctrl	100 % Ctrl	100 % Ctrl	100 % Ctrl	98 % Ctrl	95 % Ctrl	99 % Ctrl	–
Cc1cc2c([nH]1)/C=C1\C(=O)Nc3ccc(cc31)OCCOCCN(C)C2=O [Ex.91, [16a(17)Z]-2,5-dimethyl-6,7,9,10-tetrahydro-1H-12,14-(ethanediylidene)dipyrrolo[3,2-i:3′,4′-l][1,4,7]dioxazacyclopentadecine-4,16(5H,15H)-dione]	0.75 % Ctrl	15 % Ctrl	20 % Ctrl	39 % Ctrl	63 % Ctrl	92 % Ctrl	100 % Ctrl	55 % Ctrl	82 % Ctrl	73 % Ctrl	20 % Ctrl	62 % Ctrl	52 % Ctrl	83 % Ctrl	9.9 % Ctrl	1.2 % Ctrl	–
Cc1cc2c([nH]1)/C=C1\C(=O)Nc3ccc(cc31)-c1cnn(C)c1OCCCN(C)C2=O [Ex. 166, [3a(4)Z]-9,14-dimethyl-9,10,11,12-tetrahydro-14H-1,17-(ethanediylidene)pyrazolo[4,3-n]dipyrrolo[3,2-g:3′,4′-j][1,5]oxazacyclopentadecine-3,8(2H,5H)-dione]	–	–	–	–	–	–	–	–	–	–	–	–	–	–	–	–	% Ctrl, ABL1-nonphosphorylated (kinases [1]; 1 μM; target ABL1-nonphosphorylated): 4.1 % Ctrl; % Ctrl, ABL1-phosphorylated (kinases [1]; 1 μM; target ABL1-phosphorylated): 3.6 % Ctrl; % Ctrl, ABL1(F317I)-nonphosphorylated (kinases [2]; 1 μM; target ABL1(F317I)-nonphosphorylated): 80 % Ctrl; % Ctrl, ABL1(F317I)-phosphorylated (kinases [2]; 1 μM; target ABL1(F317I)-phosphorylated): 31 % Ctrl; % Ctrl, EGFR(S752-I759del) (kinases [3]; 1 μM; target EGFR(S752-I759del)): 93 % Ctrl; % Ctrl, EGFR(G719C) (kinases [4]; 1 μM; target EGFR(G719C)): 98 % Ctrl; % Ctrl, EGFR(L858R) (kinases [5]; 1 μM; target EGFR(L858R)): 85 % Ctrl; % Ctrl, PDGFRB (kinases [6]; 1 μM; target PDGFRB): 16 % Ctrl; % Ctrl, KIT (kinases [7]; 1 μM; target KIT): 100 % Ctrl; % Ctrl, KIT-autoinhibited (kinases [7]; 1 μM; target KIT-autoinhibited): 87 % Ctrl; % Ctrl, KIT(D816V) (kinases [8]; 1 μM; target KIT(D816V)): 2.8 % Ctrl; % Ctrl, KIT(V559D) (kinases [9]; 1 μM; target KIT(V559D)): 54 % Ctrl; % Ctrl, PDGFRA (kinases [10]; 1 μM; target PDGFRA): 50 % Ctrl; % Ctrl, FLT1 (kinases [11]; 1 μM; target FLT1): 79 % Ctrl; % Ctrl, FLT4 (kinases [12]; 1 μM; target FLT4): 49 % Ctrl; % Ctrl, FLT3(D835H) (kinases [13]; 1 μM; target FLT3(D835H)): 0.7 % Ctrl
